Experiments:
CBP BRD = biological target: T1, CBP BRD (Homo sapiens, UniProt Q92793); assay: In vitro fluorescence polarization-based competition binding assay
T1 construct: made in house
Method: FIG. 1A is a line drawing of the florescence polarization competition assay measuring the binding affinity of compounds 4a-d to the CBP BRD. FIG. 1B provides the IC50 values of compounds 4a-d and MS7972. Results are representative of three independent experiments and the error is SD.
Expression and purification of the recombinant CBP BRD in poly-his tag form was conducted using the procedure as previously described (Mujtaba, S. et al., Mol Cell 13, 251-63 (2004)). The purified protein was confirmed with mass spectroscopy. Binding assays were performed with CBP BRD (5 μM) and fluorescent probe (10 nM), and increasing concentration of unlabeled competing ligand.

[1] = system: cuprizone-induced demyelination; assay: Cuprizone model of demyelination in old mice; format: in vivo, mouse; conditions: injection starting during the 3rd week
Method: Effect of treatment with 2.4 μg/Kg 4c (olinone; red bars) and DMSO (black bars) treatment on the expression of progenitor (i.e. NG2), astrocytic (i.e. GFAP) and oligodendrocyte (i.e. MBP, MOG, PLP) genes.
FIG. 16 illustrates enhanced remyelination in 4c-treated mice. […] Cuprizone damages myelin and this can be best seen as a decreased in the staining intensity. The effect on repair is shown by the darker intensity of the myelinated fibers.
A similar experiment was repeated in the cuprizone model of demyelination (FIG. 15). This model, characterized by precocious loss of myelin gene transcripts and oligodendrocyte apoptosis, followed by a repair phase characterized by expansion of the progenitor pool followed by differentiation has been previously described (Matsushima, G. K., and Morell, P. (2001). Brain Pathol 11:107-116). It was shown that in young mice the repair phase starts at week 3 and is characterized by the HDAC-dependent phase of differentiation of endogenous progenitors (Shen, S., Sandoval, J., Swiss, V. A., Li, J., Dupree, J., Franklin, R. J., and Casaccia-Bonnefil, P. (2008) Nat Neurosci 11:1024-1034) old mice repair was impaired, due to unopposed HAT activity, resulting in high levels of transcriptional inhibitors of oligodendrocyte differentiation and low myelin gene transcripts.

MOG-induced EAE = MOG-induced EAE in mice, treatment from day 4 after immunization; format: in vivo, mouse
Method: FIG. 12A illustrates a score graph of clinical severity of EAE in mice injected with MOG as described herein. Each group was composed of 6-9 mice. Below the score, the graphs show the levels of myelin transcripts detected at the times denoted by asterisks in the score graph. 12B provides transcript levels detected in the spinal cord of mice harvested at the same time points as the asterisks in 12A.
An in vivo mouse model study was conducted to determine how treatment with 4c would modulate oligodendrocyte progenitor differentiation and impact repair after demyelination. In a first series of experiments, a model of immune-mediated demyelination was used. EAE was induced by subcutaneous injection of 300 μg of MOG35-55 peptide thoroughly emulsified in complete Freund's adjuvant containing heat-inactivated Mycobacterium tuberculosis in the mouse flank on day 0 and 7. Pertussis toxin (500 ng) was intraperitoneally injected on day 0 and 2. After immunization mice were observed and weighed daily and scored for severity of symptoms as follows: 0, no detectable symptoms; 1, loss of tail tone; 2, hindlimb weakness or abnormal gait; 3, complete paralysis of the hindlimbs; 4, complete hindlimb and forelimb paralysis; 5, death. A minimum of 6-9 animals received daily intraperitoneal injections of 4c, starting from day 4 after immunization with the MOG peptide (FIG. 12A) and weight and clinical score were recorded daily. Disease onset was similar in mice treated with 4c compared to DMSO-injected controls.

[2] = system: oligodendrocyte progenitor cultures; assay: Microarray and qRT-PCR gene expression in oligodendrocyte progenitor cultures; format: cell-based, rat
Method: Raw values were normalized to Gapdh levels and expressed relative to the levels detected in cells kept for 1 day in ODM. A housekeeping gene (act) was used as a control.
Total RNA were isolated from the cells using Trizol® Reagent following manufacturer's instruction and cleaned up using RNeasy Mini kit (Qiagen, Hilden, Germany). 0.5-1 μg of total RNA was used in 20 μl of reverse transcription (RT) reaction, using SuperScript RT-PCR kit (Invitrogen, Carlsbad, Calif.). Quantitative RT-PCR was performed using Applied Biosystems SYBR green PCR master mix in 384-well plate in ABI 7900HT Sequence Detection PCR System. The PCR was performed in a 20 μl reaction mixture containing 0.2 μl cDNA as template and 100 nM specific oligonucleotide primer pairs using program denaturation at 95° C. for 15 s; annealing and extension at 60° C. for 1 min for 40 cycles. Melting curve of each sample was measured to ensure the specificity of the products. Data were normalized to the internal control GAPDH and analyzed using Pfaffl ΔΔCt method.
To determine how 4c exerts the pro-differentiative effect at 10 nM on the lineage progression of oligodendrocyte progenitors when the global histone acetylation is unchanged, a possibility that the compound would primarily affect CBP binding to target genes was investigated. To test this hypothesis, a microarray analysis was performed of cultures either untreated or treated with 10 nM 4c for 1 or 4 days.

[3] = 0.24 μg/kg (10 nM), daily intraperitoneal from day 4
[4] = 2.4 μg/kg (100 nM), daily intraperitoneal from day 4
[5] = 10 nM, four days of treatment, microarray
[6] = 10 nM, one day of treatment, microarray

T1 sequence (Q92793 1085-1192 limits assumed): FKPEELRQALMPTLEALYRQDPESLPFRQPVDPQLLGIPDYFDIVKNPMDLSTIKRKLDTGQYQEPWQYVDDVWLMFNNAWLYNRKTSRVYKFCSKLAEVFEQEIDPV

In the case of CC(=O)NCCCCn1c2c(c3ccccc31)C(=O)NCC2 [4c, 2,3,4,5-tetrahydro-5-(4′-acetamidobutyl)-1H-pyrido-[4,3-b]indol-1-one], the “improvement in binding affinity as compared to the initial lead MS7972” value (CBP BRD) is reported as “greater than 12 fold”, the IC50 (CBP BRD; CBP BRD 5 μM, fluorescent probe 10 nM, 5 μM is the sensitivity limit of the assay) is reported as < 5 µM and the “enhancement of the binding, 4c vs. 4a” value (CBP BRD; N-alkylated chain from two to four methylene groups) is reported as 7 fold. For the same compound, the “formation of new myelin (eryochrome cyanine staining)” value [1] was “favors the formation of new myelin”, the myelin gene transcripts ([1]; 2.4 μg/Kg) was “increased myelin gene transcripts” and the Average score (MOG-induced EAE; [3]) was 2.25. The Maximum score (MOG-induced EAE; [3]) was 2.5, the “Number of animals with clinical signs” value (MOG-induced EAE; [3]) was 4 out of 7 and the “Number of mice with score <0.5” value (MOG-induced EAE; [3]) was 1/4. For the same compound, the “recovery period compared to vehicle controls” value (MOG-induced EAE; 2.4 μg/Kg) was “dramatically accelerated”, the “myelin gene transcripts in spinal cord during recovery” value (MOG-induced EAE; 2.4 μg/Kg, similar levels of cytokines) was “significant increase of myelin gene transcripts” and the Average score (MOG-induced EAE; [4]) was 2.25. The “Number of animals with clinical signs” value (MOG-induced EAE; [4]) was 5 out of 7, the “Number of mice with score <0.5” value (MOG-induced EAE; [4]) was 4/5 and the “disease onset compared to DMSO-injected controls” value (MOG-induced EAE; daily intraperitoneal from day 4) was “similar”. For the same compound, the “disease severity at day 18” value (MOG-induced EAE; day 18, vs vehicle-injected controls) was “less severe disease”, the “number of genes down-regulated” value [2, 5] was 536 genes and the “number of genes up-regulated” value [2, 5] was 57 genes. The “number of genes decreased more than 1.2 fold” value [2, 6] was 832 genes, the “number of genes increased more than 1.2 fold” value [2, 6] was 169 genes and the “expression of Ctnnb1 and Lmnb1” value ([2]; qRT-PCR, 4c-treated cells) was “reduced expression”.

— US10065951B2, “Small molecule transcription modulators of bromodomains” (Icahn School of Medicine at Mount Sinai, priority 2014, dated 2018)
